Test results reported in PubChem BioAssay AID624410 (The Scripps Research Institute Molecular Screening Center, 2012).
Activity calls are given as the source filed them. The rule behind the calls is not given here.

Each compound was assayed against Orexin/Hypocretin receptor type 1 (Homo sapiens) (UniProt O43613) (assay: OX1R antagonist potency, HTRF readout, late-stage follow-up, OX1R antagonist probe project, cell-based (AID 624410)). Conditions: OX1R-expressing cells, HTRF antagonist assay.
Orexin/Hypocretin receptor type 1 (Homo sapiens), sequence (O43613 whole entry, looked up): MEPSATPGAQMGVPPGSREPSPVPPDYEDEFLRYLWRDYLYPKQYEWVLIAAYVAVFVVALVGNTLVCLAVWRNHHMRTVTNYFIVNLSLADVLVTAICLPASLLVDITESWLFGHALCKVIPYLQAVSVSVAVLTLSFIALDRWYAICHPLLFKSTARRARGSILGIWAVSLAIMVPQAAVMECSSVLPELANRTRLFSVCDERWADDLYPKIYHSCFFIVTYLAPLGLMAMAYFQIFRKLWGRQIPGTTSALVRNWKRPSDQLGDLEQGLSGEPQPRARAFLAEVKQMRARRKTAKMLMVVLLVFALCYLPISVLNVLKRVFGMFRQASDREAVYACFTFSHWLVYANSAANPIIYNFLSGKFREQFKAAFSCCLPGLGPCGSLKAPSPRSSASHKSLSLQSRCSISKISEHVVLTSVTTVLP

`Cc1c(NS(=O)(=O)c2cccc(C(=O)OCC(=O)N(C)C3CCCCC3)c2)c(=O)n(-c2ccccc2)n1C` and `CCOc1ccccc1C(=O)Nc1ccc2nc3n(c(=O)c2c1)CCCCC3` are within 1.5-fold of each other in IC50: 0.75 µM for the first, 0.769 µM for the second.

Compared with `CSc1cccc(NC(=O)C2CCCN2S(=O)(=O)c2ccc(Br)s2)c1` (stereo not given), `Cc1cccc(NC(=O)[C@@H]2CCCN2S(=O)(=O)c2ccc(Cl)cc2)c1` is 5.3-fold higher in IC50: 0.386 µM for the first, 2.03 µM for the second. The first is the more potent here.

Compared with `COc1cccc(/C=C2/Oc3ccccc3N(CC(=O)NCC3CCCO3)C2=O)c1` (stereo not given), `O=C(CN1C(=O)/C(=C\c2cccc(Br)c2)Oc2ccccc21)NCC1CCCO1` (stereo not given) is 1.7-fold lower in IC50: 0.468 µM for the first, 0.277 µM for the second. The second is the more potent here.

`COc1ccc(OC)c(S(=O)(=O)NCC(c2ccco2)N2CCc3ccccc32)c1` (stereo not given) and `Cc1cccc(C=NNC(=O)c2cc3c(s2)-c2ccccc2CC3)c1` are within 1.5-fold of each other in IC50: 2.71 µM for the first, 2.82 µM for the second.

First: CCN(CC)c1ccc(NC(=O)Cn2c(C(C)NC(=O)c3ccccc3)nc3ccccc32)cc1 (stereo not given)
Second: COCCCNC(=O)CCC(=O)NNc1nc2ccccc2c2nc(-c3ccccc3)nn12
The IC50 of the first is 10-fold lower: 0.655 µM for the first, 6.54 µM for the second.

Compared with `Cc1ccccc1NC(=O)C1CCCN1S(=O)(=O)c1ccccc1C(F)(F)F` (stereo not given), `CCc1cc(C(=O)OCC(=O)N2CCC(c3ccccc3)=N2)sc1C` is 1.7-fold lower in IC50: 3.74 µM for the first, 2.19 µM for the second.

Going from `CCc1cc2c(SCC(=O)N(CC)c3c(N)n(Cc4ccccc4)c(=O)[nH]c3=O)ncnc2s1` to `CCn1c(SCC(=O)Nc2ccc3c(c2)c2ccccc2n3CC)nnc1-c1cnccn1`, the IC50 falls from 1.61 µM to 0.844 µM (1.9-fold).

Going from `CC(=C/c1ccccc1)/C=C1/SC(N2CCOCC2)=NC1=O` to `O=C(CSc1ccc(-c2ccccc2)nn1)c1cccs1`, the IC50 falls from 3.02 µM to 1.96 µM (1.5-fold).

`Fc1cccc(Nc2nc3ccccc3n3cnnc23)c1` and `Cc1ccc(-c2csc3nnc(SCC(=O)Nc4nsc(-c5ccccc5)n4)n23)cc1` are within 1.5-fold of each other in IC50: 3.34 µM for the first, 3.06 µM for the second.

Going from `COc1cc(OC)c(-c2nc3ccccc3s2)cc1OC` to `Cc1cc(Cl)ccc1OCCCC(=O)NCCN1C(=O)S/C(=C\c2cccnc2)C1=O`, the IC50 falls from 1.9 µM to 0.437 µM (4.3-fold). The second is the more potent here.

Going from `CCSC1=C(C#N)C(c2ccccc2Cl)C(C(=O)c2cccs2)C(O)(C(F)(F)F)N1` (stereo not given) to `CSc1cccc(N2CC(C(=O)NCCN3C(=O)S/C(=C\c4cccnc4)C3=O)CC2=O)c1` (stereo not given), the IC50 rises from 0.611 µM to 1.9 µM (3.1-fold). The first is the more potent here.

In the case of `Cc1noc(C)c1COc1ccc(C(=O)OCC(=O)N2CC(=O)Nc3ccccc32)cc1`, the IC50 is reported as “inactive”.
With `O=c1cc(CN2CC(O)Cc3ccc4ccccc4c32)nc2sccn12` (stereo not given) the IC50 was “inactive”.
`CCOC(=O)N1CCN(C(=O)CSc2ccc(-c3ccccc3)nn2)CC1` was tested, and the IC50 was “inactive”.
